Source: patent US20050112058A1, “Auger effect-based cancer therapy method” (Ben-Gurion University of the Negev, priority 2002, published 2005)
Like-named read-outs stand apart in the source and are kept apart here.

Key:
[1] = system: KHJJ murine mammary carcinoma tumors; assay: Auger electron therapy: tumor volume after 103Pd brachytherapy seed implantation with or without PtTMPyP(4); type: in vivo, BALB/C mice; conditions: for Tumor volume, mm^3 ± standard error, Auger Electron Therapy: 103 Pd seeds in combination with PtTMPyP(4): with 103Pd seeds
Description: General description. On day 0, after measurements of the length, width and height of the tumors, palladium-103 brachytherapy seeds were implanted into 12 KHJJ murine mammary carcinoma tumors borne on the thighs of 12 BALB/C mice. Twenty-four hours after seed implantation, 40 mg/kg, platinum (II)-tetrakis(N-methyl-4-pyridyl) porphyrin [PtTMPyP(4)], in the form of its chloride salt, was administered i.p. as a single bolus injection of 200 μl to the six mice undergoing AET. Tumor volume measurements were obtained two to three times weekly. Drug was also administered on days 5 (30 mg/kg), and 19 (20 mg/kg) following seed implantation.
Tumor. Prior to the experiment, tumors were excised from the donor mouse in a sterile environment, and fragmented into 1-2 mm sections in a Petri dish. After anesthetizing each mouse with ketamine/xylazine (10:1), a small slit was prepared through the skin on the thigh, ˜5 mm above and lateral to the distal femur of the right knee. To assure subcutaneous implantation of the tumor fragment, a magnifying glass with a fluorescent light was used to observe the sheen on the fascia surrounding the three sides of the ‘pocket’ produced by the slit. An 18 gauge trochar, into whose bevel a tumor fragment had been inserted, was positioned into the ‘pocket’. A stylette was used to push the fragment into the ‘pocket’. Tumors were implanted either 12 or 15 days prior to the experiment. Upon verification of tumor growth, those tumors of adequate size to accommodate the seed implant, were randomized into treatment groups (AET or radiation only) using a coin flip.
Measurements of tumor volume. Using a digital caliper, the length, width, and height of the tumors were measured. Being ellipsoid in their growth pattern, tumor volume was determined according to the formula, […].
Seed implantation. On day 0, after weighing the mice and measuring the length, width and height of the tumors, palladium-103 brachytherapy seeds (˜2.2 mCi in activity; Theragenics) were implanted into the thigh tumors as follows. The anesthetized mouse was positioned on a board whose angle was ˜45°. The tumor bearing leg was inserted through an elastic band, secured through the board. The foot was taped to the board. An 18 gauge trochar with a funnel head that was supported by a brace on a ring stand, was inserted into the center to the tumor. The seed, previously sterilized by dipping in ETOH, rinsing in a sterile PBS solution, and air-dried, was placed in the funnel of the trochar using long-nosed forceps. A stylette was used to insert the seed into the tumor, after which the trochar was withdrawn from the tumor and Neosporin was applied to the wound.
Drug delivery. The day after seed implantation (day 1), 40 mg/kg of PtTMPyP(4), in the form of its chloride salt, was administered intraperitoneally to the mice in the AET treatment group. On day 5, […] of PtTMPyP(4) was injected i.p., and on day 19, a dosage of 20 mg/kg was injected i.p.

DNA = conditions: for Fluorescent Intensity: 7.5 μg DNA, 7.5 μl ethidium bromide buffer
Description: A stock solution of 1.26 μM ethidium bromide containing 2 mM HEPES, 8 mM sodium chloride and 0.05 mM EDTA (pH=7) was prepared.

B16 melanoma = conditions: 40 mg/kg intraperitoneal, samples up to 72 hours after injection, compared with TCA-insoluble fraction
Description: Tissue samples were taken up to 72 hours after the injection. The samples were treated with trichloroacetic acid (TCA), such that the TCA-insoluble fraction contained the DNA and high molecular weight proteins, and the TCA-soluble fraction contained the cytoplasmic and membrane components of the cells. Inductively-coupled plasma mass spectrometry (ICP-MS) was used to measure the concentration of indium ions in the TCA-insoluble and TCA-soluble fractions.

CN1C=CC(c2c3nc(c(C4=CCN(C)C=C4)c4ccc([nH]4)c(C4=CCN(C)C=C4)c4nc(c(C5=CCN(C)C=C5)c5ccc2[nH]5)C=C4)C=C3)=CC1.[Pt+2] [PtTMPyP(4), platinum (II)-tetrakis(N-methyl-4-pyridyl) porphyrin]
effect on tumor growth compared with radiation alone or no treatment (in words) ([1]; AET group, FIG. 4, mean tumor volume): significant delay in tumor control | Tumor volume, mm^3 ± standard error, Auger Electron Therapy: 103 Pd seeds in combination with PtTMPyP(4) ([1]; day 0 post seed implantation (before first drug dose)): 117.5 ± 18.6 mm^3 | Tumor volume, mm^3 ± standard error, Auger Electron Therapy: 103 Pd seeds in combination with PtTMPyP(4) ([1]; day 3 post seed implantation, i.p. 40 mg/kg day 1, 30 day 5, 20 day 19): 112.8 ± 15.3 mm^3 | Tumor volume, mm^3 ± standard error, Auger Electron Therapy: 103 Pd seeds in combination with PtTMPyP(4) ([1]; day 5 post seed implantation, i.p. 40 mg/kg day 1, 30 day 5, 20 day 19): 110.6 ± 25.7 mm^3 | Tumor volume, mm^3 ± standard error, Auger Electron Therapy: 103 Pd seeds in combination with PtTMPyP(4) ([1]; day 7 post seed implantation, i.p. 40 mg/kg day 1, 30 day 5, 20 day 19): 121.5 ± 29.4 mm^3 | Tumor volume, mm^3 ± standard error, Auger Electron Therapy: 103 Pd seeds in combination with PtTMPyP(4) ([1]; day 9 post seed implantation, i.p. 40 mg/kg day 1, 30 day 5, 20 day 19): 123.1 ± 26.9 mm^3 | Tumor volume, mm^3 ± standard error, Auger Electron Therapy: 103 Pd seeds in combination with PtTMPyP(4) ([1]; day 12 post seed implantation, i.p. 40 mg/kg day 1, 30 day 5, 20 day 19): 150.7 ± 31.5 mm^3 | Tumor volume, mm^3 ± standard error, Auger Electron Therapy: 103 Pd seeds in combination with PtTMPyP(4) ([1]; day 15 post seed implantation, i.p. 40 mg/kg day 1, 30 day 5, 20 day 19): 116.5 ± 44.9 mm^3 | Tumor volume, mm^3 ± standard error, Auger Electron Therapy: 103 Pd seeds in combination with PtTMPyP(4) ([1]; day 19 post seed implantation, i.p. 40 mg/kg day 1, 30 day 5, 20 day 19): 175.6 ± 69.2 mm^3 | Tumor volume, mm^3 ± standard error, Auger Electron Therapy: 103 Pd seeds in combination with PtTMPyP(4) ([1]; day 21 post seed implantation, i.p. 40 mg/kg day 1, 30 day 5, 20 day 19): 200.1 ± 81.9 mm^3 | Tumor volume, mm^3 ± standard error, Auger Electron Therapy: 103 Pd seeds in combination with PtTMPyP(4) ([1]; day 23 post seed implantation, i.p. 40 mg/kg day 1, 30 day 5, 20 day 19): 232.6 ± 91.2 mm^3 | Tumor volume, mm^3 ± standard error, Auger Electron Therapy: 103 Pd seeds in combination with PtTMPyP(4) ([1]; day 27 post seed implantation, i.p. 40 mg/kg day 1, 30 day 5, 20 day 19): 280.2 ± 90.6 mm^3 | factor between mean tumor volume with seeds only and with seeds plus drug ([1]; day 32, 103Pd seeds alone versus 103Pd seeds plus PtTMPyP(4)): 5 | Tumor volume, mm^3 ± standard error, Auger Electron Therapy: 103 Pd seeds in combination with PtTMPyP(4) ([1]; day 32 post seed implantation, i.p. 40 mg/kg day 1, 30 day 5, 20 day 19, 40 mg/kg): 356.2 ± 133.9 mm^3

C[n+]1ccc(-c2c3nc(c(-c4cc[n+](C)cc4)c4ccc([n-]4)c(-c4cc[n+](C)cc4)c4nc(c(-c5cc[n+](C)cc5)c5ccc2[n-]5)C=C4)C=C3)cc1.[In+3] [In^3+-tetra(N-methyl-4-pyridyl)-porphyrin]
Fluorescent Intensity (DNA; 0.25 μg complex): 85% | Fluorescent Intensity (DNA; 0.50 μg complex): 73% | Fluorescent Intensity (DNA; 0.75 μg complex): 63% | Fluorescent Intensity (DNA; 1.00 μg complex): 54% | Fluorescent Intensity (DNA; 1.25 μg complex): 47% | Fluorescent Intensity (DNA; 1.50 μg complex): 41% | Fluorescent Intensity (DNA; 1.75 μg complex): 35% | Fluorescent Intensity (DNA; 2.00 μg complex): 30% | Fluorescent Intensity (DNA; 2.25 μg complex): 26% | Fluorescent Intensity (DNA; 2.50 μg complex): 22% | Fluorescent Intensity (DNA; 2.75 μg complex): 19% | Fluorescent Intensity (DNA; 3.00 μg complex): 16% | Fluorescent Intensity (DNA; 3.25 μg complex): 13.4% | Fluorescent Intensity (DNA; 3.50 μg complex): 12% | Fluorescent Intensity (DNA; 3.75 μg complex): 10% | Fluorescent Intensity (DNA; 4.00 μg complex): 9% | binding to DNA by displacement of ethidium bromide (in words) (DNA; fluorescence decreases with increasing complex concentration, FIG. 2): displaces the ethidium bromide and becomes bound to the DNA | number of indium ions per cell in the TCA-soluble fraction (cytoplasmic and membrane components) (B16 melanoma): lesser amount
